Experiments:
[1] = test system: dermal primary human fibroblasts (dPHFs); assay: Western blot of fibronectin, collagen-1 and PAI-1 in dermal primary human fibroblasts; type: cell-based; conditions: for extracellular levels of fibronectin, collagen-1, and PAI-1 (ECM proteins): Etomoxir 10 uM, BAY-876 40 nM, FIG. 2A; for effect on intracellular levels of fibronectin and collagen-1 / effect on downregulation of extracellular fibronectin and collagen-1 by caffeic acid: caffeic acid (40 uM) treated dPHFs; for effect on downregulation of extracellular fibronectin and collagen-1 by caffeic acid: in a dose dependent manner
SMAD3 = SMAD3 luciferase reporter in dPHFs; type: cell-based, human; conditions: for SMAD3 dependent transcription: in response to TGF-B1, caffeic acid 40 uM, WZB-117 10 uM, 2-DG 2 mM
Protocol: SMAD3 luciferase reporter was constructed as previously described^26. Oligos containing SMAD3 binding sites were designed with BamH1 and Sal1 digestion sites. Forward: 5′-[…]-3′, reverse: 5′-[…]-3′. SMAD oligoes were inserted into a p-delta-51 LUC II reporter. dPHFs were electroporated with construct using an Amaxa mouse neural stem cell nucleofactor kit (Lonza). 24 hours after electroporation, cells were treated as above (cell culture) for 24 hours and lysed to assess for luciferase and renilla activity. Relative luciferase activity was defined as the level of luciferase bioluminescence divided by renilla bioluminescence for each sample.

[2] = test system: dermal primary human fibroblasts (dPHFs); assay: qRT-PCR gene expression profiling in dPHFs; type: cell-based; conditions: caffeic acid 40 uM
Protocol: dPHFs obtained from ATCC (PCS-201-012) were cultured in DMEM with 5% FBS. Mesenchymal cells were isolated primarily from C3H or B6 mice. Animals were euthanized and intraperitoneal fat or skin was dissected and minced. Collagenase and hyaluronidase (Stem cell technologies) digestion was performed in a rotating oven at 37 C for 1 hour, passed through a 70 uM filter, and then plated in DMEM+10% FSB to expand the mesenchymal population. Cells were starved for 12 hours in MEM media prior to treatment with TGF-B1 (Sigma), caffeic acid (Sigma), dichloroacetic acid (Sigma), PDGF-BB (R&D Systems), and/or etomoxir (Tocris). All protein and mRNA profiling was performed at 24 hours post-treatment except for PDGF-BB, which was performed at 48 hours post-treatment.
For human and murine skin samples, skin samples were macrodissected and snap frozen in liquid nitrogen and stored at −80° C. For in vitro experiments, cells were trypsinized and either snap frozen in liquid nitrogen or immediately underwent RNA extraction. All RNA was extracted using the RNeasy Mini Kit (Qiagen) according to manufacturer instructions. RNA quality was measured and quantified using either the NanoDrop 2000c Spectrophotometer (Thermo Scientific); we used either A260/280 for cell samples, or RIN for human and murine samples using a 2100 bioanalyzer (Aligent). cDNA was synthesized from normalized amounts of RNA using random hexamer primers and SuperScript III (Invitrogen) on a PTC-200 Peltier Thermal Cycler. Primers were obtained from peer-reviewed publications whenever possible. See Table S1 for references and amplicon size. Primers were validated through BLASTing to ensure specificity, size confirmation by gel electrophoresis at first time use, and by melting curve assessment for all reactions. PCR efficiency was measured using a standard curve through the dilution of a representative sample to determine the linear range of cDNA amounts for qRT-PCR reactions. qRT-PCR reactions were performed on 384-well plates (Applied Biosystems) using SYBR Green PCR Master Mix (Applied Biosystems). The analysis was run on the 7900HT Fast Real-Time PCR System (Applied Biosystems). Reaction conditions for cDNA synthesis and qRT-PCR are found in supplementary data Table S2 and S3 respectively. A no template control was used to monitor contamination and false positive results from primer-dimers. Results of no template controls were confirmed to have higher CT-values and distinct melting curves compared to template reactions. 18S ribosomal RNA was used as an internal control. A 2^−ΔΔCT method was used for relative quantification and for graphical representation in figures. Statistical analysis was performed on biological replicates using Relative Expression Software Tool (REST)^24 set to default parameters.

[3] = test system: dermal primary human fibroblasts (dPHFs); assay: FAO and glycolysis functional assessment (Seahorse) in dPHFs; type: cell-based; conditions: TGF-B1 stimulated dPHFs
Protocol: FAO and Glycolysis Functional Assessment for dPHFs • Seahorse experiments were performed on an XFe96 analyzer (Aligent) based on manufacturer's instructions. dPHFs were prepared as per above (cell culture) on an XF96 culture plate. For glycolysis profiling, final concentration of glucose (1 mM or 10 mM), oligomycin (1 uM), and 2-DG (100 mM) was utilized. For FAO, palmitate sodium (Sigma) and BSA-fatty acid free (Sigma) were used to make palmitate-BSA (0.17 mM) as per manufacturer's instructions. Etomoxir (Tocris) 40 uM final concentration was used.

[4] = test system: dermal primary human fibroblasts (dPHFs); assay: Lysosome quantification (LysoTracker) and TFEB expression in dPHFs; type: cell-based; conditions: TGF-B1 3 ng/ml; caffeic acid 40 uM
Protocol: dPHFs were treated as per above (cell culture) and exposed to LysoTracker (ThermoFisher) as per manufacturer's instructions on a 4 chamber cover glass system (ThermoFisher). Images were obtained using an Olympus Fluoview laser-scanning confocal microscope. Fluorescence intensity was quantitated per cell using the Object Identification module and Measurement function of Volocity software. Cell area was measured using ImageJ software.

[5] = test system: dermal primary human fibroblasts (dPHFs); assay: DQ-collagen-1 / lysotracker co-localization in dPHFs; type: cell-based; conditions: TGF-B1 3 ng/ml; caffeic acid 40 uM
CD36 = CD36 gene (qRT-PCR) and surface (flow cytometry) expression in dPHFs; type: cell-based, human
Protocol: For human and murine skin samples, skin samples were macrodissected and snap frozen in liquid nitrogen and stored at −80° C. For in vitro experiments, cells were trypsinized and either snap frozen in liquid nitrogen or immediately underwent RNA extraction. All RNA was extracted using the RNeasy Mini Kit (Qiagen) according to manufacturer instructions. RNA quality was measured and quantified using either the NanoDrop 2000c Spectrophotometer (Thermo Scientific); we used either A260/280 for cell samples, or RIN for human and murine samples using a 2100 bioanalyzer (Aligent). cDNA was synthesized from normalized amounts of RNA using random hexamer primers and SuperScript III (Invitrogen) on a PTC-200 Peltier Thermal Cycler. Primers were obtained from peer-reviewed publications whenever possible. See Table S1 for references and amplicon size. […] PCR efficiency was measured using a standard curve through the dilution of a representative sample to determine the linear range of cDNA amounts for qRT-PCR reactions. qRT-PCR reactions were performed on 384-well plates (Applied Biosystems) using SYBR Green PCR Master Mix (Applied Biosystems). […] A 2^−ΔΔCT method was used for relative quantification and for graphical representation in figures. […]

[6] = test system: radiation-induced skin fibrosis; assay: Murine radiation-induced skin fibrosis model; type: in vivo, mice
Excerpt: All animal procedures were approved by Animal Care Committee at the University Health Network under AUP 3422. A murine skin fibrosis model was created by radiating the hindlimb of C3H/HeJ mice (Jackson Laboratory) or B6.12951-Cd36^tm1Mfe/J mice (Jackson Laboratory) using an XRAD 225Cx (Precision X-Ray) and a 2.5 cm collimator. Prior to irradiation, fluoroscopic imaging was used to confirm and standardize the irradiation site. 40 Gy for C3H mice or 30 Gy for B6 mice was divided equally on the dorsal and ventral side of the leg. Animals were randomized into groups for treatment by a researcher blinded to treatment assignment. For CD36^high cell treatment, 1×10^6 cells in 100 ul PBS were injected into the hindlimb subdermally at 3 sites weekly for 3 weeks starting at 4 weeks post-irradiation. For caffeic acid phenethyl ester treatment, 10 mg/kg was given by intraperitoneal injection by a researcher blinded to treatment. Caffeic acid phenethyl ester or vehicle control was given 3× per week for 10 weeks starting at 1 week post-irradiation. Leg contracture measurement was performed, as previously published^21, after first sedating mice with inhalation anesthesia and ensuring deep sedation through no pain reflex and no muscle tone. Then mice hips were fixed on a custom apparatus. 0.1N equivalent weight was then used to extend the fibrotic and contralateral normal leg and leg extension was measured using a standardized ruler by two assessors blinded to treatment groups. Percentage leg contracture was calculated as 1−leg extension of fibrotic leg/leg extension of contralateral normal leg. Leg contracture was measured biweekly and averaged for the week.
Formalin-fixed, paraffin-embedded 8 um sections treated with Masson's Trichrome Stain were whole slide scanned using Aperio ScanScope XT. Analysis was performed by a researched blinded to treatment. Using ImageJ, whole slide scanned images were loaded using the […] plugin, and then stacked to RGB. Colour deconvolution was used to separate the full-colour images into their red, green and blue components. A threshold of pixel intensity was optimized and set and standardized for all images. A ratio of blue (trichrome) to red (nuclear) pixel density was derived for each image, representing collagen to cell ratio.

[7] = TGF-B1 treated dPHFs, caffeic acid 40 uM
[8] = mice with skin fibrosis, CAPE IP 10 mg/Kg 3 times per week for 10 weeks

Cc1c(NC(=O)c2cc(C(N)=O)nc3cc(F)ccc23)c(C(F)(F)F)nn1Cc1ccc(C#N)cc1 [BAY-876]
extracellular levels of fibronectin, collagen-1, and PAI-1 (ECM proteins) ([1]; dPHFs, WZB-117 10 uM): downregulation

Cl.N [NH4Cl]
effect on intracellular levels of fibronectin and collagen-1 [1]: no effect
effect on downregulation of extracellular fibronectin and collagen-1 by caffeic acid [1]: inhibit

O=CC[C@@H](O)[C@H](O)[C@H](O)CO [2-DG, 2-deoxy-d-glucose]
extracellular levels of fibronectin, collagen-1, and PAI-1 (ECM proteins) ([1]; dPHFs, WZB-117 10 uM): downregulation
SMAD3 dependent transcription (SMAD3): inhibited

O=C(O)/C=C/c1ccc(O)c(O)c1 [caffeic acid]
extracellular fibronectin and collagen-1 [1, 7]: markedly downregulated
intracellular and extracellular PAI-1 [1, 7]: reduced
PPAR genes expression ([2]; TGF-B1 (3 ng/ml) treated dPHFs): upregulated
glycolysis genes expression ([2]; TGF-B1 (3 ng/ml) treated dPHFs): downregulated
FN1 and COL1A1 expression ([2]; TGF-B1 stimulated fibroblasts): moderately decreased
expression of PAI ([2]; TGF-B1 stimulated fibroblasts): significantly downregulated
functional shift of metabolism (glycolysis vs FAO) [3]: functionally shifted metabolism from glycolysis to FAO
SMAD3 dependent transcription (SMAD3): reduced
expression of TFEB and lysosomes in dPHFs [4]: increasing
co-localization between DQ-collagen-1 and lysosomes [5]: significant increase
CD36 gene and surface expression (CD36; TGF-B1 stimulated dPHFs, caffeic acid 40 uM): restored

O=C(/C=C/c1ccc(O)c(O)c1)OCCc1ccccc1 [CAPE, caffeic acid phenethyl ester]
fibronectin, collagen-1 and PAI-1 ([1]; TGF-B1 (3 ng/ml) treated dPHFs, CAPE 5 uM): downregulate
functional and histological evidence of fibrosis severity (leg contracture, trichrome) ([6]; CAPE IP 10 mg/Kg 3 times per week for 10 weeks): significantly reduced
PPAR signaling in skin [6, 8]: upregulated
expression of CD36 in skin [6, 8]: upregulated
CD36 expression in vimentin+ (mesenchymal) cells, co-immunofluorescence ([6]; mice with skin fibrosis, CAPE treatment): increase

CCN(CC)CCCC(C)Nc1ccnc2cc(Cl)ccc12 (stereo not shown) [chloroquine]
effect on intracellular levels of fibronectin and collagen-1 [1]: no effect
effect on downregulation of extracellular fibronectin and collagen-1 by caffeic acid [1]: inhibit

CCOC(=O)[C@@]1(CCCCCCOc2ccc(Cl)cc2)CO1 [etomoxir]
effect on the downregulation of pro-fibrotic proteins by caffeic acid ([1]; TGF-B1 + caffeic acid 40 uM + etomoxir, dPHFs): inhibited
extracellular levels of fibronectin, collagen-1, and PAI-1 (ECM proteins) ([1]; dPHFs, WZB-117 10 uM): elevation
rescue of WZB-117 and 2-DG inhibition of SMAD3 dependent transcription (SMAD3; TGF-B1 + WZB-117 or 2-DG + etomoxir 10 uM): not rescued
effect on caffeic acid's reduction of SMAD3 dependent transcription (SMAD3; TGF-B1 + caffeic acid 40 uM + etomoxir 10 uM): inhibited
CD36 surface expression (CD36; dPHFs, Etomoxir 10 uM for 24 hours): downregulated

O=C(Oc1cccc(F)c1OC(=O)c1cccc(O)c1)c1cccc(O)c1 [WZB-117]
extracellular fibronectin, collagen-1 and PAI-1 protein levels ([1]; TGF-B1 3 ng/ml, WZB-117 10 uM, even in dPHFs lacking PPARG and ACOX1): reduced
extracellular levels of fibronectin, collagen-1, and PAI-1 (ECM proteins) ([1]; dPHFs, WZB-117 10 uM): downregulation
SMAD3 dependent transcription (SMAD3): inhibited

— patent US11819535B2, “Composition and methods for regulating extracellular matrix accumulation” (UNIVERSITY HEALTH NETWORK, priority 2018, dated 2023)
